Tests used:
Test in all cases: Post-Emergent Test II herbicidal activity
Assay type in all cases: in vivo
[1] = system: ABUTH: velvetleaf (Abutilon theophrasti); conditions: post-emergence, 336 h, 14 days, read-out: Visual Growth Reduction (%) 14 Days After Application ABUTH; for pest or weed control at 35 g/ha: 35 g ai/ha; for pest or weed control at 70 g/ha: 70 g ai/ha; for pest or weed control at 140 g/ha: 140 g ai/ha
Method: (§1) Post-Emergent Test II: Seeds or nutlets of the desired test plant species were planted in Sun Gro Metro-Mix® 360 planting mixture, which typically has a pH of 6.0 to 6.8 and an organic matter content of about 30 percent, in plastic pots with a surface area of 64 square centimeters. When required to ensure good germination and healthy plants, a fungicide treatment and/or other chemical or physical treatment was applied. The plants were grown for 7-21 d in a greenhouse with an approximate 15 h photoperiod which was maintained at about 23-29° C. during the day and 22-28° C. during the night. Nutrients and water were added on a regular basis and supplemental lighting was provided with overhead metal halide 1000-Watt lamps as necessary. The plants were employed for testing when they reached the first or second true leaf stage.
(§2) A weighed amount, determined by the highest rate to be tested, of each test compound was placed in a 25 mL glass vial and was dissolved in 4 mL of a 97:3 v/v mixture of acetone and DMSO to obtain concentrated stock solutions. […] The concentrated stock solutions obtained were diluted with 20 mL of an aqueous mixture containing acetone, water, isopropyl alcohol, DMSO, Atplus 411F crop oil concentrate, and Triton® X-155 surfactant in a 48.5:39:10:1.5:1.0:0.02 v/v ratio to obtain spray solutions containing the highest application rates. Additional application rates were obtained by serial dilution of 12 mL of the high rate solution into a solution containing 2 mL of 97:3 v/v mixture of acetone and DMSO and 10 mL of an aqueous mixture containing acetone, water, isopropyl alcohol, DMSO, Atplus 411F crop oil concentrate, and Triton X®-155 surfactant in a 48.5:39:10:1.5:1.0:0.02 v/v ratio to obtain ½×, ¼×, ⅛× and 1/16× rates of the high rate. Compound requirements are based upon a 12 mL application volume at a rate of 187 liters per hectare (L/ha). Formulated compounds were applied to the plant material with an overhead Mandel track sprayer equipped with 8002E nozzles calibrated to deliver 187 L/ha over an application area of 0.503 square meters at a spray height of 18 inches […] above the average plant canopy height. Control plants were sprayed in the same manner with the solvent blank.
(§3) The treated plants and control plants were placed in a greenhouse as described above and watered by subirrigation to prevent wash-off of the test compounds. After 14 d, the condition of the test plants as compared with that of the untreated plants was determined visually and scored on a scale of 0 to 100 percent where 0 corresponds to no injury and 100 corresponds to complete kill.

[2] = system: AMARE: redroot pigweed (Amaranthus retroflexus); conditions: post-emergence, 336 h, 14 days, read-out: Visual Growth Reduction (%) 14 Days After Application AMARE; for pest or weed control at 35 g/ha: 35 g ai/ha; for pest or weed control at 70 g/ha: 70 g ai/ha; for pest or weed control at 140 g/ha: 140 g ai/ha
Method: as §1, §2, §3

[3] = system: BRSNN: oilseed rape, canola (Brassica napus); conditions: post-emergence, 336 h, 14 days, read-out: Visual Growth Reduction (%) 14 Days After Application BRSNN; for pest or weed control at 35 g/ha: 35 g ai/ha; for pest or weed control at 70 g/ha: 70 g ai/ha; for pest or weed control at 140 g/ha: 140 g ai/ha
Method: as §1, §2, §3

[4] = system: CHEAL: lambsquarters (Chenopodium album); conditions: post-emergence, 336 h, 14 days, read-out: Visual Growth Reduction (%) 14 Days After Application CHEAL; for pest or weed control at 35 g/ha: 35 g ai/ha; for pest or weed control at 70 g/ha: 70 g ai/ha; for pest or weed control at 140 g/ha: 140 g ai/ha
Method: as §1, §2, §3

[5] = system: CYPES: yellow nutsedge (Cyperus esculentus); conditions: post-emergence, 336 h, 14 days, read-out: Visual Growth Reduction (%) 14 Days After Application CYPES; for pest or weed control at 35 g/ha: 35 g ai/ha; for pest or weed control at 70 g/ha: 70 g ai/ha; for pest or weed control at 140 g/ha: 140 g ai/ha
Method: as §1, §2, §3

[6] = system: ECHCG: barnyardgrass (Echinochloa crus-galli); conditions: post-emergence, 336 h, 14 days, read-out: Visual Growth Reduction (%) 14 Days After Application ECHCG; for pest or weed control at 35 g/ha: 35 g ai/ha; for pest or weed control at 70 g/ha: 70 g ai/ha; for pest or weed control at 140 g/ha: 140 g ai/ha
Method: as §1, §2, §3

[7] = system: EPHHL: wild poinsettia (Euphorbia heterophylla); conditions: post-emergence, 336 h, 14 days, read-out: Visual Growth Reduction (%) 14 Days After Application EPHHL; for pest or weed control at 35 g/ha: 35 g ai/ha; for pest or weed control at 70 g/ha: 70 g ai/ha; for pest or weed control at 140 g/ha: 140 g ai/ha
Method: as §1, §2, §3

[8] = system: HELAN: sunflower (Helianthus annuus); conditions: post-emergence, 336 h, 14 days, read-out: Visual Growth Reduction (%) 14 Days After Application HELAN; for pest or weed control at 35 g/ha: 35 g ai/ha; for pest or weed control at 70 g/ha: 70 g ai/ha; for pest or weed control at 140 g/ha: 140 g ai/ha
Method: as §1, §2, §3

[9] = system: ORYSA: rice (Oryza sativa); conditions: post-emergence, 336 h, 14 days, read-out: Visual Growth Reduction (%) 14 Days After Application ORYSA; for pest or weed control at 35 g/ha: 35 g ai/ha; for pest or weed control at 70 g/ha: 70 g ai/ha; for pest or weed control at 140 g/ha: 140 g ai/ha
Method: as §1, §2, §3

[10] = system: SETFA: giant foxtail (Setaria faberi); conditions: post-emergence, 336 h, 14 days, read-out: Visual Growth Reduction (%) 14 Days After Application SETFA; for pest or weed control at 35 g/ha: 35 g ai/ha; for pest or weed control at 70 g/ha: 70 g ai/ha; for pest or weed control at 140 g/ha: 140 g ai/ha
Method: as §1, §2, §3

[11] = system: TRZAS: wheat, spring (Triticum aestivum); conditions: post-emergence, 336 h, 14 days, read-out: Visual Growth Reduction (%) 14 Days After Application TRZAS; for pest or weed control at 35 g/ha: 35 g ai/ha; for pest or weed control at 70 g/ha: 70 g ai/ha; for pest or weed control at 140 g/ha: 140 g ai/ha
Method: as §1, §2, §3

[12] = system: ZEAMX: maize, corn (Zea mays); conditions: post-emergence, 336 h, 14 days, read-out: Visual Growth Reduction (%) 14 Days After Application ZEAMX; for pest or weed control at 35 g/ha: 35 g ai/ha; for pest or weed control at 70 g/ha: 70 g ai/ha; for pest or weed control at 140 g/ha: 140 g ai/ha
Method: as §1, §2, §3

Structure (SMILES) | pest or weed control at 35 g/ha [1] | pest or weed control at 70 g/ha [1] | pest or weed control at 140 g/ha [1] | pest or weed control at 35 g/ha [2] | pest or weed control at 70 g/ha [2] | pest or weed control at 140 g/ha [2] | pest or weed control at 35 g/ha [3] | pest or weed control at 70 g/ha [3] | pest or weed control at 140 g/ha [3] | pest or weed control at 35 g/ha [4] | pest or weed control at 70 g/ha [4] | pest or weed control at 140 g/ha [4] | pest or weed control at 35 g/ha [5] | pest or weed control at 70 g/ha [5] | pest or weed control at 140 g/ha [5] | pest or weed control at 35 g/ha [6] | pest or weed control at 70 g/ha [6] | pest or weed control at 140 g/ha [6] | pest or weed control at 35 g/ha [7] | pest or weed control at 70 g/ha [7] | also measured
COC(=O)c1nc(-c2ccc3nsnc3c2F)cc(N)c1Cl [Compound 14] | 0 to 29% | 0 to 29% | 0 to 29% | 30 to 44% | 30 to 44% | 45 to 59% | 0 to 29% | 0 to 29% | 0 to 29% | 45 to 59% | 60 to 74% | 75 to 84% | 0 to 29% | 0 to 29% | 0 to 29% | 0 to 29% | 0 to 29% | 0 to 29% | 60 to 74% | 85 to 94% | pest or weed control at 140 g/ha [7]: 95 to 100%; pest or weed control at 35 g/ha [8]: 0 to 29%; pest or weed control at 70 g/ha [8]: 0 to 29%; pest or weed control at 140 g/ha [8]: 30 to 44%; pest or weed control at 35 g/ha [9]: 0 to 29%; pest or weed control at 70 g/ha [9]: 0 to 29%; pest or weed control at 140 g/ha [9]: 0 to 29%; pest or weed control at 35 g/ha [10]: 0 to 29%; pest or weed control at 70 g/ha [10]: 0 to 29%; pest or weed control at 140 g/ha [10]: 0 to 29%; pest or weed control at 35 g/ha [11]: 0 to 29%; pest or weed control at 70 g/ha [11]: 0 to 29%; pest or weed control at 140 g/ha [11]: 0 to 29%; pest or weed control at 35 g/ha [12]: 0 to 29%; pest or weed control at 70 g/ha [12]: 0 to 29%; pest or weed control at 140 g/ha [12]: 0 to 29%
COC(=O)c1nc(-c2ccc3nonc3c2Cl)cc(N)c1Cl [Compound 18] | 0 to 29% | 0 to 29% | 0 to 29% | 95 to 100% | 95 to 100% | 95 to 100% | 60 to 74% | 75 to 84% | 75 to 84% | 75 to 84% | 85 to 94% | 95 to 100% | 0 to 29% | 0 to 29% | 30 to 44% | 0 to 29% | 0 to 29% | 30 to 44% | 0 to 29% | 0 to 29% | pest or weed control at 140 g/ha [7]: 30 to 44%; pest or weed control at 35 g/ha [8]: 0 to 29%; pest or weed control at 70 g/ha [8]: 30 to 44%; pest or weed control at 140 g/ha [8]: 60 to 74%; pest or weed control at 35 g/ha [9]: 0 to 29%; pest or weed control at 70 g/ha [9]: 0 to 29%; pest or weed control at 140 g/ha [9]: 0 to 29%; pest or weed control at 35 g/ha [10]: 0 to 29%; pest or weed control at 70 g/ha [10]: 0 to 29%; pest or weed control at 140 g/ha [10]: 0 to 29%; pest or weed control at 35 g/ha [11]: 0 to 29%; pest or weed control at 70 g/ha [11]: 0 to 29%; pest or weed control at 140 g/ha [11]: 0 to 29%; pest or weed control at 35 g/ha [12]: 0 to 29%; pest or weed control at 70 g/ha [12]: 0 to 29%; pest or weed control at 140 g/ha [12]: 0 to 29%
